Common to all, as to type: in vivo
Data set [1] relates to German cockroaches (Blattella germanica). Put plainly: German cockroach filter paper test (Test Example 1). As to conditions: 144 h, 0.7 ml of 500 ppm aqueous dilution on filter paper, male German cockroaches, after six days. On the procedure:
Filter paper of 5.5 cm in diameter was laid in the bottom of a polyethylene cup (diameter: 5.5 cm). After 0.7 ml of a 500 ppm aqueous dilution obtained by diluting the formulation of the test compound prepared according to the formulation example 1 was dropped on the filter paper, 30 mg of sucrose was scattered. Two male German cockroaches (Blattella germanica) were left in the polyethylene cup with a cover. After six days, the mortality of the German cockroaches was examined.

For data set [2], the system named is houseflies (Musca domestics). Put plainly: Housefly filter paper test (Test Example 2). As to conditions: 0.7 ml of 500 ppm aqueous dilution on filter paper, female houseflies, after one day. Here is the method:
Filter paper of 5.5 cm in diameter was laid in the bottom of a polyethylene cup (diameter: 5.5 cm). After 0.7 ml of a 500 ppm aqueous dilution obtained by diluting the formulation of the test compound prepared according to the formulation example 1 was dropped on the filter paper, 30 mg of sucrose was scattered. Ten female houseflies (Musca domestics) were left in the cup with a cover. After one day, the mortality of the houseflies was examined.

In data set [3] the test system is houseflies (Musca domestics). Briefly: Housefly topical application test (Test Example 3). Conditions: 0.5 μl of 30 g/l acetone solution at back thoracic region (about 15 μg/one housefly), female houseflies, after 24 hours, three replicate. On the procedure: A solution (30 g/l) for each of the present compound (A) and the reference compound was prepared by diluting with acetone.
The acetone solution (0.5 μl) was applied to 10 female houseflies (Musca domestics) at the back thoracic region (active ingredient: about 15 μg/one housefly) by a microsyringe and the houseflies were left with water and feed in a plastic cup. After 24 hours, the mortality (%) was examined (three replicate).

Structures are written as SMILES.

By mortality is commonly meant the percentage killed. Low readings indicate a weak lethal effect, high ones a strong lethal effect. `Cc1cc(O)c(C(=O)CC(C)C(F)(F)F)c(=O)o1` (centres unmarked) [the present compound (B), 4-hydroxy-6-methyl-3-(3-trifluoromethylbutyryl)-2-pyrone] had a mortality at 500 ppm in data set [1] of 100%. Moreover, the “mortality of the houseflies” value in data set [2] is listed as 100%.
In turn, `Cc1cc(O)c(C(=O)CCC(F)(F)F)c(=O)o1` [the present compound (A), 4-hydroxy-6-methyl-3-(4,4,4-trifluorobutyryl)-2-pyrone] registered a mortality at 500 ppm in data set [1] of 100%. The “mortality of the houseflies” value in data set [2] was 100%. For the same compound, the “Mortality (%)” value in data set [3] worked out at 100%.
`Cc1cc(O)c(C(=O)CC(C(F)(F)F)C(F)(F)F)c(=O)o1` [the present compound (C), 4-hydroxy-6-methyl-3-(3-trifluoromethyl-4,4,4-trifluorobutyryl) -2-pyrone] displayed a mortality at 500 ppm in data set [1] of 100%. Further, in data set [2], the “mortality of the houseflies” value is recorded as 100%.
As to `CCCC(=O)c1c(O)cc(C)oc1=O` [The Reference compound, reference compound], the “Mortality (%)” value in data set [3] is 3.3%.
